According to patent publication US8507484B2, “Preventive and/or therapeutic agent for neutrophilic inflammatory diseases” (Kyowa Hakko Kirin Co., Ltd., priority 2004, dated 2013):
Structures can show the parent of a compound that is named as a salt. Each block holds one compound with its values, some of them ahead of it.

What was measured:
human GPR4 = target: T1, human GPR4 (Homo sapiens, UniProt P46093); test: GPR4 antagonism, luciferase reporter assay in human GPR4 assay cells; assay type: cell-based; conditions: 1 μmol/L test compound, 10 nmol/L 17β-estradiol, 6 hours, firefly luciferase reporter; for inhibition at 1 µM: read-out: Inhibition rate (%)
T1 construct: expressed in transfected cells; expression induced by 17β-estradiol
T1 sequence (P46093 whole entry): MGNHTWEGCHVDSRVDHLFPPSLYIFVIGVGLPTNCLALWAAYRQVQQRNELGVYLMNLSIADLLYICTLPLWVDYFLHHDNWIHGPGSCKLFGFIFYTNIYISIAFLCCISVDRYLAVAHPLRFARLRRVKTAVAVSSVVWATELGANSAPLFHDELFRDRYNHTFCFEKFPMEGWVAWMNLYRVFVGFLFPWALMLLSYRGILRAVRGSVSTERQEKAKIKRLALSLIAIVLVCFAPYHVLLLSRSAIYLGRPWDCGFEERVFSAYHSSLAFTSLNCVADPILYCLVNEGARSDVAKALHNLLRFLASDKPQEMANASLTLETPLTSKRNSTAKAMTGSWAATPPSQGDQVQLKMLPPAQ
Description: Assay cells for human GPR4 were constructed according to the method descried in WO03/087366. By using the assay cells, the constitutive activity of human GPR4 can be detected by activity of a reporter (firefly luciferase).
Plasmid pAGal9-GPR4 for inducible expression of human GPR4 (2 μg: WO03/087366) and reporter plasmid pACREpluc (2 μg; WO03/087366) were co-transferred into 6×10^6 cells of KJMGER8 (WO03/087366) by electroporation. The resultant transformant was suspended in 8 mL of a RPMI1640-ITPSG medium [RPMI medium (Nissui Pharmaceutical Co., Ltd.) containing 6 mmol/L of L-glutamine (Invitrogen Corp.), 100 units/ml of penicillin (Invitrogen Corp.), 100 μg/ml of streptomycin (Invitrogen Corp.), 10 mmol/L of N-2-hydroxyethylpiperazine-N′-2-ethanesulfonic acid (HEPES) (Nacalai Tesque Inc.), 3 μg/ml of insulin (Sigma Co. Ltd.), 5 μg/ml of transferrin (Sigma Co. Ltd.), 5 mmol/L of sodium pyruvate (Wako Pure Chemical Industries, Ltd.), 125 nmol/L of selenious acid (Nacalai Tesque Inc.), and 1 mg/ml of galactose (Nacalai Tesque Inc.)], followed by culture in a CO^2 incubator at 37° C. for 24 hours. After the culture, blasticidin S (Funakoshi Co., Ltd., 2.0 μg/ml), hygromycin B (Wako Pure Chemical Industries, Ltd., 300 μg/ml), and geneticin (Nacalai Tesque Inc., 500 μg/ml) were added to the culture solution, followed by further culture for 14 days to prepare a stable transformant (referred to as “GPR4 assay cells”). The transformant was subcultured in a RPMI1640-ITPSG medium containing blastocidin S (Funakoshi Co., Ltd., 2.0 μg/ml), hygromycin B (manufactured by Wako Pure Chemical Industries, Ltd., 300 μg/ml), and geneticin (Nacalai Tesque Inc., 500 μg/ml).
Similarly, control plasmid pAGal9-nd (2 μg; WO03/087366) and reporter plasmid pACREpluc (2 μg; WO03/087366) were co-transferred in KJMGER8 to prepare a stable transformant (referred to as “control cells”).
The resulting human GPR4 assay cells (expressing GPR4 by stimuli of 17β-estradiol) were seeded onto a white plate at a concentration of 10^5 cells per well. Then, 17β-estradiol (Sigma Co. Ltd.), which was diluted with a medium so that the concentration in the reaction solution was 10 nmol/L, and 1 μmol/L of test compound were added to each well, followed by reaction in a 5% CO2 incubator at 37° C. for 6 hours. Then, a Steady Glo Luciferase Assay System (Promega Co., Ltd.) solution was added to terminate the reaction, and the quantity of light emitted per second was measured by a TOP count (Packard, Meriden, Conn., USA).
The activity (GPR4 antagonism) of the test compound was shown by an inhibition rate calculated on the basis of counts (counts per second) in the presence or absence of 17β-estradiol according to the following equation:
[formula] wherein A, B, and C represent the following values: […]
A: counts when 17β-estradiol and test compound were added
B: counts when neither 17β-estradiol nor test compound was added
C: counts when only 17β-estradiol was added

[1] = test system: LPC-induced neutrophil infiltration into airway; test: Inhibitory activity on LPC-induced neutrophil infiltration into airway (Test Example 3); assay type: in vivo; conditions: 10 mg/kg orally 1 hour before intratracheal LPC; BALF 6 hours after LPC; male BALB/c mice
Description: Male BALB/c mice of 7-week old were intratracheally administered with 0.1 mL of a 1 mg/mL LPC solution prepared by dissolving in a 0.1% aqueous bovine serum albumin solution or a 0.1% aqueous bovine serum albumin solution (negative control group). Six hours after, bronchoalveola lavage was conducted, and the neutrophil infiltration in the recovered BALF was measured. In addition, Compound 118 or Compound 160 was suspended in a 0.5% aqueous methyl cellulose solution (solvent), and 10 mg/kg of the resultant suspension was orally administered to the mice 1 hour before LPC administration. In a […] control group, the solvent was administered instead of the test compound suspension. The infiltration of neutrophils was measured by measuring the number of cells in the recovered BALF with an automatic blood counter (Celltac α MEK-6158, Nihon Kohden Corporation, Tokyo) and then counting the number of neutrophils under a microscope using a smear prepared with Cytospin 3 (Shandon, Inc., Pittsburgh, Pa., USA). The number of neutrophils was calculated by multiplying the total number of cells by the percentage of the neutrophils. In this test, five mice per group were used for Compound 118, and six mice per group were used for Compound 160.

[2] = test system: LPC-induced neutrophil infiltration into airway; test: Inhibitory activity on LPC-induced neutrophil infiltration into airway (Test Example 2); assay type: in vivo; conditions: 100 mg/kg orally 1 hour before intratracheal LPC; BALF 6 hours after LPC; male BALB/c mice
Description: male BALB/c mice of 7-week old were intratracheally administered with 0.1 ml of a 1 mg/mL LPC solution prepared by dissolving in a 0.1% aqueous bovine serum albumin solution or a 0.1% aqueous bovine serum albumin solution (negative control group). Six hours after, bronchoalveola lavage was conducted, and the neutrophil infiltration in the recovered BALF was measured. In addition, Compound 53 or Compound 81 was suspended in a 0.5% aqueous methyl cellulose solution (solvent), and 100 mg/kg of the resultant suspension was orally administered to the mice 1 hour before LPC administration. In a […] control group, the solvent was administered instead of the test compound suspension. The infiltration of neutrophils was measured by measuring the number of cells in the recovered BALF with an automatic blood counter (Celltac α MEK-6158, Nihon Kohden Corporation, Tokyo) and then counting the number of neutrophils under a microscope using a smear prepared with Cytospin 3 (Shandon, Inc., Pittsburgh, Pa., USA). The number of neutrophils was calculated by multiplying the total number of cells by the percentage of the neutrophils. In this test, six mice per group were used for Compound 53, and six or seven mice per group were used for Compound 81.

melting point: 98 °C
inhibition at 1 µM (human GPR4): 31%
SMILES: CCc1nc2c(C)cc(C)nc2n1Cc1ccc(C(=O)c2ccccc2)cc1 [Compound 1, 4-(2-Ethyl-5,7-dimethylimidazo[4,5-b]pyridin-3-ylmethyl)benzophenone]

Inhibition rate (%) (human GPR4): 77%
SMILES: CCc1nc2c(C)cc(C)nc2n1Cc1ccc(NC(=O)OC(C)(C)C)cc1 [Compound 81]
suppression of increase in the number of neutrophils in BALF as compared with the positive control group [2]: 42%

inhibition at 1 µM (human GPR4): 45%
SMILES: CCc1nc2c(C)cc(C)nc2n1Cc1ccc(Nc2ccccc2)cc1 [Compound 97, {4-(2-Ethyl-5,7-dimethylimidazo[4,5-b]pyridin-3-ylmethyl)phenyl}phenylamine]

melting point: 146 to 150 °C
SMILES: CCc1nc2c(C)cc(C)nc2n1Cc1cnc(Nc2ccccc2)nc1 (as salt: hydrochloride)

Inhibition rate (%) (human GPR4): 74%
SMILES: CCc1nc2c(C)cc(C)nc2n1Cc1ccc(NC(=O)c2cccc3ccccc23)cc1 [Compound 53]
suppression of increase in the number of neutrophils in BALF as compared with the positive control group [2]: 47%

The remaining lines, values behind:

SMILES: CCc1nc2c(C)cc(C)nc2n1Cc1ccc(N[C@H]2CC[C@H](C(=O)NCCN3CCCC3)CC2)cc1 [Compound 118, trans-4-[4-(2-Ethyl-5,7-dimethyl-3H-imidazo[4,5-b]pyridin-3-ylmethyl)phenylamino]cyclohexanecarboxylic acid [2-(pyrrolidin-1-yl)ethyl]amide]
inhibition at 1 µM (human GPR4): 97%
suppression of increase in the number of neutrophils in BALF as compared with the positive control group [1]: 60%

SMILES: Cc1cc(C)c2nc(C)n(Cc3ccc(NCC4CCN(C5CCN(C)CC5)CC4)cc3)c2n1 [Compound 160, 4-[4-(2,5,7-Trimethyl-3H-imidazo[4,5-b]pyridin-3-ylmethyl)phenylamino]methyl-1-(1-methylpiperidin-4-yl)piperidine]
suppression of increase in the number of neutrophils in BALF as compared with the positive control group [1]: 74%

SMILES: CCc1nc2c(C)cc(C)nc2n1Cc1cccc(C(=NO)c2cccc(CN3CCCC3)c2)c1 [Compound 24, 1-(3-{[3-(2-Ethyl-5,7-dimethylimidazo[4,5-b]pyridin-3-ylmethyl)phenyl]hydroxyiminomethyl}benzyl)pyrrolidine]
melting point: 231 to 236 °C
inhibition at 1 µM (human GPR4): 34%

SMILES: Cc1cc(C)c2nc(C)n(Cc3ccc(NCC4CCN(C5CCOCC5)CC4)cc3)c2n1 [Compound 158, 4-[4-(2,5,7-Trimethyl-3H-imidazo[4,5-b]pyridin-3-ylmethyl)phenylamino]methyl-1-(4-tetrahydropyranyl)piperidine]
inhibition at 1 µM (human GPR4): 83%

SMILES: CCc1nc2c(C)cc(C)nc2n1Cc1cccc(Nc2ccccc2)c1 [Compound 98]
Inhibition rate (%) (human GPR4): 37%

SMILES: CCc1nc2c(C)cc(C)nc2n1Cc1ccc(NCC2CCNCC2)cc1 [Compound 143, 4-[4-(2-Ethyl-5,7-dimethyl-3H-imidazo[4,5-b]pyridin-3-ylmethyl)phenylamino]methylpiperidine]
inhibition at 1 µM (human GPR4): 97%
